“Also recorded” adds a separate entry of the source.
Columns and labels:
[1] = tested on: 4T1 breast cancer cell line; test: Seahorse glycostress assay (ECAR); format: cell-based, murine; settings: 4T1 cells, 6 h; for glycolysis inhibition (ECAR): compared with control group; for glycolytic inhibitory properties compared to NaDCA: 200 μM vs NaDCA 600 μM
Description: FIGS. 3A-3C show cellular glycolysis inhibition by Mito-SilylDCA. Glycolytic inhibition efficacy of Mito-SilylDCA was investigated along with the components used for synthesizing Mito-SilylDCA. (FIG. 3A) Chemical structures of TPP-(CH2)5—COOH), methoxyl(octadecyldimethyl)silane, sodium dichloroacetate (NaDCA), Mito-DCA, and Mito-SilylDCA. (FIG. 3B) Extracellular acidification rate (ECAR) measured in 4T1, murine breast cancer cell line, upon treatment with the compounds mentioned in A. The cells were pre-treated with the test articles at the following concentration: TPP-(CH2)5—COOH (200 μM), methoxy (octadecyldimethyl)silane (200 μM), NaDCA (600 μM), Mito-DCA (200 μM), or Mito-Silyl-DCA (200 μM), for 6 h. Port injections for the seahorse glycostress assay included glucose (10 mM) in port A, oligomycin (1 μM) in port B, and 2-DG (50 mM) in port C. (FIG. 3C) Graphical representation quantifying the change in glycolysis, glycolytic capacity, and glycolytic reserve parameters upon treatment with test articles. The data in FIG. 3C was generated as an average from 3 independent biological replicates. The statistical significance between the treatment groups was measured by ordinary one-way analysis of variance (ANOVA) using multiple comparison.
Cellular glycolysis inhibition by Mito-SilylDCA. Glycolysis inhibitory efficacy of Mito-Silyl-DCA was investigated in 4T1 breast cancer cell line which is known to be aggressive and highly glycolytic in nature with an overexpression of PDK1.^6 The Seahorse glycostress assay was performed to understand the metabolic fluxes of glycolysis. The 4T1 cells grown in normoxia were treated with TPP-(CH2)5—COOH) (200 μM), methoxyl(octadecyldimethyl)silane (200 μM), NaDCA (600 μM), Mito-DCA (200 μM), or Mito-Silyl-DCA (200 μM) for 6 h followed by washing and returning the cells to a glucose-free medium (FIG. 3A). The extracellular acidification rate (ECAR) traces were then monitored in response to the sequential administration of glucose, oligomycin, and 2-deoxy-D-glucose (2-DG) to assess glycolysis, glycolytic capacity, and glycolytic reserve, respectively. […] The data shown here are average from three independent biological replicates.
Glycolysis inhibition in highly glycolytic cells. This example documented inhibition of glycolysis in 4T1 cells by Mito-SilylDCA using Seahorse glycostress assay (FIG. 3B). The Seahorse glycostress assay was performed to check the metabolic fluxes of glycolysis. 4T1 cells were treated with TPP-hexanoic acid (200 μM), methoxyl(octadecyldimethyl)silane (200 μM), sodium dichloroacetate (DCA) (600 μM), Mito-DCA (200 μM), or Mito-SilylDCA (200 μM) for 6 h followed by washout and returned to glycose-free medium. The extracellular acidification rate (ECAR) was monitored in response to the sequential administration of glucose, oligomycin, and 2-deoxy-D-glucose (2-DG) to assess glycolysis, glycolytic capacity, and glycolytic reserve, respectively (FIG. 3C).

[2] = Stability at different pH values by HPLC and LC-MS (Example 1); format: physicochemical; settings: for degradation / stability at acidic pH: acidic pH (4.0); for stability in alkaline conditions: alkaline conditions (pH 9.5); for stability in alkaline conditions / hydrolysis in neutral conditions: DMF-water (2/1, v/v), room temperature; for hydrolysis in neutral conditions: neutral conditions (pH 7.4)
Protocol: FIGS. 2A-2B. Stability of Mito-SilylDCA at different pH values. Traces of HPLC plots of (FIG. 2A) Mito-SilylDCA and (FIG. 2B) Mito-DCA in solutions of different pH values along with plots of percent of the compound remained with time. A solution of Mito-SilylDCA or Mito-DCA in DMF-water (2/1, v/v) was incubated for different times (12 h, 24 h, and 48 h) at different pH environments (4.0, 7.4, and 9.5) at room temperature.
Stability of Mito-SilylDCA. A combination of HPLC and LC-MS analytical techniques were employed to understand the stability of Mito-SilylDCA in different physiological environments. A solution of Mito-SilylDCA or Mito-DCA in DMF-water (2/1, v/v) was incubated for 12, 24, and 48 h at different pH environments of 4.0, 7.4, and 9.5 at room temperature and the degradation behavior of the compounds was analyzed with HPLC and LC-MS (FIGS. 2A and 2B). […] After 12 h, more than 60% of compounds are decomposed at pH 7.4, which should be due to the hydrolysis of DCA and the silyl chain. […] Both Mito-DCA and Mito-SilylDCA were unstable in alkaline conditions and the compounds decomposed easily. […] The better stability of Mito-SilylDCA compared to Mito-DCA would be beneficial for the long-term storage and further application in biological environment.

[3] = Chemical stability at different pH by HPLC and LC-MS (Example 2); format: physicochemical; settings: DMF/water (1/1, v/v), 24 h, pH 4.5, 5.5, 6.5, 7.4, 8.5, room temperature
Protocol: Stability of Mito-SilylDCA. With Mito-SilylDCA in hand, the chemical stability was checked to ensure the efficacy of drug in different physiological environments. A mixed solution of Mito-SilylDCA in DMF/water (1/1, v/v) was incubated for 24 h in different pH environment (4.5, 5.5, 6.5, 7.4, 8.5) at room temperature. Then the solutions were measured with HPLC and LC-MS to check the degradation behavior of the compounds.

[4] = mouse, in vivo
Protocol: Thus, the experiment investigated the efficacy of T-Mito-SilylDCA-NPs in an in vivo mouse model in combination with a cisplatin prodrug, Platin-M^20-21. […] Thus for this study, luciferase tagged MDA-MB-231BR^Luc cells in Balb/c nude mice were used. The experiment implanted MDA-MB-231BR^Luc cells in the right flank of N=7 female Balb/c nude mice (FIG. 5A). […] Once the tumors were established, these animals were treated with a combination of T-Platin-M-NP and T-Mito-SilylDCA-NP in a sequential manner to inhibit first OXPHOS with T-Platin-M-NP^20 and simultaneous inhibition of resulting glycolysis T-Mito-SilylDCA-NP. This study included two groups: Group 1, saline with n=3 animals and group 2, combination of T-Platin-M-NPs and T-Mito-SilylDCA-NPs with n=4 animals (FIG. 5A). The tumor bearing animals were treated with saline or combination therapeutics for 4 weeks following a biweekly treatment regimen which involved tail i.v injections of 10 mg/kg dose of T-Platin-M-NP with respect to Platin-M 24 h prior to 30 mg/kg dose of T-Mito-Silyl-DCA-NP with respect to Mito-SilylDCA. […] All the images were taken at the same aperture and field of view was kept at 22.4 cm. […]
The present study administered T-Mito-SilylDCA to mice via intravenous injection and quantified the accumulation of NPs using ICP-MS analyses.

Row | Compound | glycolysis inhibition (ECAR) ([1]; 200 μM) | glycolytic inhibitory properties compared to NaDCA [1] | glycolysis inhibition capability compared to Mito-DCA ([1]; 200 μM) | decomposition compared with Mito-DCA ([2]; acidic conditions (pH 4.0), period of 24 h) | degradation / stability at acidic pH [2] | stability in alkaline conditions [2] | hydrolysis in neutral conditions [2] | chemical stability [3] | accumulation in the tumor [4] | biodistribution: organs in which present [4]
1 | O=C(O)CCCCC[P+](c1ccccc1)(c1ccccc1)c1ccccc1.[Br-] [TPP-(CH2)5—COOH), (5-carboxypentyl)triphenylphosphonium bromide, reference compound] | No detectable changes in glycolysis levels | – | – | – | – | – | – | – | – | –
2 | CCCCCCCCCCCCCCCCCC[Si](C)(C)OCC(COC(=O)C(Cl)Cl)(COC(=O)C(Cl)Cl)NC(=O)CCCCC[P+](c1ccccc1)(c1ccccc1)c1ccccc1 [Mito-SilylDCA] | significant inhibition of glycolysis | significantly higher | not significantly decreased | slower than Mito-DCA | relatively slow degradation; also recorded: most stable at an acidic pH | unstable | hydrolyzed in a short time | stable in neural and weak acidic conditions | a significant portion of Mito-SilylDCA accumulated in the tumor | liver, tumor mass, brain, kidney, and spleen
3 | O=C(CCCCC[P+](c1ccccc1)(c1ccccc1)c1ccccc1)NC(COC(=O)C(Cl)Cl)(COC(=O)C(Cl)Cl)COC(=O)C(Cl)Cl [Mito-DCA, reference compound] | significant glycolysis inhibition | significantly higher | – | – | relatively slow degradation | unstable | hydrolyzed in a short time | – | – | –
4 | CCCCCCCCCCCCCCCCCC[Si](C)(C)OC [methoxyl(octadecyldimethyl)silane, reference compound] | No detectable changes in glycolysis levels | – | – | – | – | – | – | – | – | –
